Source: US20260083924A1, “CAPSULE INHALER FOR THE ADMINISTRATION OF A PHOSPHODIESTERASE-4 INHIBITOR” (CHIESI FARMACEUTICI S.P.A., priority 2022, published 2026)

Legend:
[1] = In vitro dissolution test (RespiCell) on fine fraction collected by Fast Screening Impactor; assay type: physicochemical; conditions: FIG. 3; 800 μg dose, HR RS01 or UHR RS01 vs Nexthaler; PBS with 0.5% SDS, 37 °C
Experimental: In vitro dissolution tests were carried out to compare the performance of the Reference Products and the drug product of the invention at 800 μg, using RespiCell™ (EU registration No 006649570-0001), a vertical diffusion cell apparatus that comprises a 170 cm^3 reservoir filled with the dissolution media and a side arm of 10 cm length. The apparatus is composed of an upper part, the donor chamber, and a lower part, the receptor chamber, linked by a clamp and separated by a glass fiber filter, used as diffusion membrane, and sit horizontally in contact with the dissolution medium. The receptor chamber contains a magnetic stirrer inside it. Type A/E glass fiber filter of 76 mm diameter (PALL Corporation, Port Washington; NY, USA) were employed as diffusion membrane. The dissolution medium employed for the analysis was phosphate-buffer saline (PBS) with 0.5% of Sodium dodecyl sulfate (SDS). RespiCell™ was connected to a heating thermostat (Lauda eco silver E4, DE) set at 37±0.5° C. […] The amount of drug in the samples was assessed by HPLC. The data were expressed as percentage of the compound of formula (I) dissolved and 100% of the dissolution corresponded to the drug amount dissolved at the end of experiment. […] The difference factor (f1) is calculated as follows: […]

[2] = inhalation; multi-dose Nexthaler vs single-dose Aerolizer; cited from earlier work

amount of the compound of formula (I) dissolved, higher in comparison to the Reference Product [1]: 7-20%
SMILES: CS(=O)(=O)Nc1ccc(C(=O)O[C@@H](Cc2c(Cl)c[n+]([O-])cc2Cl)c2ccc(OC(F)F)c(OCC3CC3)c2)cc1OCC1CC1 [compound of formula (I), 3,5-dichloro-4-[(2S)-2-[3-(cyclopropylmethoxy)-4-(difluoromethoxy)phenyl]-2-{[3-(cyclopropylmethoxy)-4-(methanesulfonamido)benzoyl]oxy}ethyl]pyridinel-oxide]
weighted AUC systemic bioavailability, higher via Nexthaler than via Aerolizer [2]: about 30%
